Results: US20260116868A1 (Arcus Biosciences, Inc., priority 2023, published 2026)

What was measured:
Cbl-b = target: T1, Cbl-b (Homo sapiens, UniProt Q13191); test: Cbl-b probe displacement HTRF binding assay; details: 0.4 nM Cbl-b, 150 nM BODIPY probe
T1 construct: biotin (biotinylated protein)
Summary of the method: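 Compound competes with BODIPY probe (150 nM) for biotinylated Cbl-b (0.4 nM) in HEPES/NaCl/Triton/TCEP/BSA buffer; 60 min preincubation, 15 min with probe, room temperature. Tb-streptavidin HTRF read; % displacement vs DMSO and no-protein controls, IC50 from four-parameter fit.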

Jurkat cells = test: IL-2 secretion assay in Jurkat cells activated with CD3/CD28 T Cell Activator; type: cell-based; details: Homo sapiens; Jurkat cells, CD3/CD28 T Cell Activator, 24 h, IL-2 AlphaLISA; read-out: IL-2 Secretion (EC50)
Summary of the method: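 Jurkat cells in Opti-MEM were preincubated 1 h at 37° C with compound (final 10 μM to 300 pM, 16-point 1:2 dilution), then activated with human CD3/CD28 T Cell Activator for 24 h at 37° C. Supernatant IL-2 measured by AlphaLISA; EC50 from 4-parameter logistic fit.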

T1 sequence (Q13191 whole entry, species assumed): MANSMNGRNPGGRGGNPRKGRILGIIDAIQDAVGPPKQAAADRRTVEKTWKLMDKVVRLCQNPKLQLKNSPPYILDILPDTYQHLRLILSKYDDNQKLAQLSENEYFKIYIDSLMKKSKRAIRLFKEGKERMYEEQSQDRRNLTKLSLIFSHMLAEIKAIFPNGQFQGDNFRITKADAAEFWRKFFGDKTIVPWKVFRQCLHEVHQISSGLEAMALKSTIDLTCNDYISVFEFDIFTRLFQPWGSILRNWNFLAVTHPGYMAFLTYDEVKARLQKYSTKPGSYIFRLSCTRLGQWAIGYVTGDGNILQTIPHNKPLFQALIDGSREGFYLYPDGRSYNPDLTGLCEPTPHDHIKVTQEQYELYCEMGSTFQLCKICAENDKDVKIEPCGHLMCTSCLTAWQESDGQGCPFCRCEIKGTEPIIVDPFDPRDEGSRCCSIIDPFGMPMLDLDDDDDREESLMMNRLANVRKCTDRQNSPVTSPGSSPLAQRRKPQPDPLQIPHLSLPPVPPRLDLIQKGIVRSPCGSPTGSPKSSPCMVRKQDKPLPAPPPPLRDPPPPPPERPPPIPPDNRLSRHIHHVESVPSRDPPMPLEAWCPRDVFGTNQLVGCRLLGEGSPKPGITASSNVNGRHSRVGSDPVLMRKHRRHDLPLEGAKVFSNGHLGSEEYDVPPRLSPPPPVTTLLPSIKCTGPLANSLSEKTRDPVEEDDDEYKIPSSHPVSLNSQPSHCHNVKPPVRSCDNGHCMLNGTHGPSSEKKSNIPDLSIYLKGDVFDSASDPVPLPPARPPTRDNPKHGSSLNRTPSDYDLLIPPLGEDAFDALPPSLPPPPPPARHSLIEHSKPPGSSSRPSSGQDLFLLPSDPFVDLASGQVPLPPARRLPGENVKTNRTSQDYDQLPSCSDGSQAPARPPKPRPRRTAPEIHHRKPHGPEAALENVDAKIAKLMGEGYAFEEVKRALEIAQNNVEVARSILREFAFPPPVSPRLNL

| IC50 (Cbl-b) [nM] | EC50 (Jurkat cells) [nM] | SMILES |
| --- | --- | --- |
| < 100 | 1000 to 5000 | C=CCn1cc(CN(C)C)cc(C(=O)Nc2cc(-c3ccc(F)cc3-c3nncn3C)cc(C3CC3)n2)c1=O [Example 34, N-{6-Cyclopropyl-4-[4-fluoro-2-(4-methyl-4H-1,2,4-triazol-3-yl)phenyl]-2-pyridyl}-1-allyl-5-[(dimethylamino)methyl]-2-oxo-1,2-dihydronicotinamide] |
| 100 to 1000 | 100 to 1000 | CO[C@H]1C[C@@](c2cccc(NC(=O)c3cc(CN4CCC[C@H](C)C4)cn(C4CC4)c3=O)c2)(c2nncn2C)C1 [Example 80, 1-cyclopropyl-N-[3-[3-methoxy-1-(4-methyl-1,2,4-triazol-3-yl)cyclobutyl]phenyl]-5-[[(3S)-3-methylpiperidin-1-yl]methyl]-2-oxopyridine-3-carboxamide] |
| < 100 | 100 to 1000 | Cc1ocnc1-c1cc(C#N)ccc1-c1cc(NC(=O)c2cc(CNC3(C)CCC3)cn(C3CC3)c2=O)nc(C2CC2)c1 [Example 53, N-{4-[4-cyano-2-(5-methyl-1,3-oxazol-4-yl)phenyl]-6-cyclopropyl-2-pyridyl}-1-cyclopropyl-5-[(1-methylcyclobutylamino)methyl]-2-oxo-1,2-dihydronicotinamide] |
| 100 to 1000 | 1000 to 5000 | COCCNCc1cc(C(=O)Nc2cc(-c3ccc(C#N)cc3-c3nc(C(F)(F)F)cn3C)cc(C3CC3)n2)c(=O)n(C2CC2)c1 [Example 46, N-(4-{4-cyano-2-[1-methyl-4-(trifluoromethyl)-2-imidazolyl]phenyl}-6-cyclopropyl-2-pyridyl)-1-cyclopropyl-5-[(2-methoxyethylamino)methyl]-2-oxo-1,2-dihydronicotinamide] |
| < 100 | 100 to 1000 | COCCNCc1cc(C(=O)Nc2cc(-c3ccc(C#N)cc3-c3ncoc3C)cc(C3CC3)n2)c(=O)n(CC2CC2)c1 [Example 64, N-{4-[4-cyano-2-(5-methyl-1,3-oxazol-4-yl)phenyl]-6-cyclopropyl-2-pyridyl}-1-(cyclopropylmethyl)-5-[(2-methoxyethylamino)methyl]-2-oxo-1,2-dihydronicotinamide] |
| < 100 | 100 to 1000 | CO[C@H]1CCCN(Cc2cc(C(=O)Nc3cc(-c4ccc(F)cc4-c4nncn4C)cc(C4CC4)n3)c(=O)n(C3CC3)c2)C1 [Example 25, N-{6-cyclopropyl-4-[4-fluoro-2-(4-methyl-4H-1,2,4-triazol-3-yl)phenyl]-2-pyridyl}-5-{[(S)-3-methoxy-1-piperidyl]methyl}-1-cyclopropyl-2-oxo-1,2-dihydronicotinamide] |
| 100 to 1000 | > 5000 | Cn1cnnc1-c1cc(F)ccc1-c1cc(NC(=O)c2cc(C3CCNC3)cn(C3CC3)c2=O)nc(C2CC2)c1 (centres unmarked) [Example 30, N-{6-Cyclopropyl-4-[4-fluoro-2-(4-methyl-4H-1,2,4-triazol-3-yl)phenyl]-2-pyridyl}-1-cyclopropyl-2-oxo-5-(3-pyrrolidinyl)-1,2-dihydronicotinamide] |
| < 100 | < 100 | CO[C@@H](C)CNCc1cc(C(=O)Nc2cc(-c3ccc(F)cc3-c3nncn3C)cc(C3CC3)n2)c(=O)n(C2CC2)c1 [Example 17, N-{6-cyclopropyl-4-[4-fluoro-2-(4-methyl-4H-1,2,4-triazol-3-yl)phenyl]-2-pyridyl}-5-{[(S)-2-methoxypropylamino]methyl}-1-cyclopropyl-2-oxo-1,2-dihydronicotinamide] |
| < 100 | 1000 to 5000 | CN(C)Cc1c[nH]c(=O)c(C(=O)Nc2cc(-c3ccc(F)cc3-c3nncn3C)cc(C3CC3)n2)c1 [Example 32, N-{6-Cyclopropyl-4-[4-fluoro-2-(4-methyl-4H-1,2,4-triazol-3-yl)phenyl]-2-pyridyl}-5-[(dimethylamino)methyl]-2-oxo-1,2-dihydronicotinamide] |
| < 100 | < 100 | CO[C@@H](C)CNCc1cc(C(=O)Nc2cc(-c3ccc(Cl)cc3C(=O)N3CC(F)(F)C3)cc(C3CC3)n2)c(=O)n(C)c1 [Example 105, N-[4-[4-chloro-2-(3,3-difluoroazetidine-1-carbonyl)phenyl]-6-cyclopropylpyridin-2-yl]-5-[[[(2S)-2-methoxypropyl]amino]methyl]-1-methyl-2-oxopyridine-3-carboxamide] |
| < 100 | 100 to 1000 | CN(C)Cc1cc(C(=O)Nc2cc(-c3ccc(F)cc3-c3nncn3C)cc(C3CC3)n2)c(=O)n(C2CC2)c1 [Example 33, N-{6-Cyclopropyl-4-[4-fluoro-2-(4-methyl-4H-1,2,4-triazol-3-yl)phenyl]-2-pyridyl}-1-cyclopropyl-5-[(dimethylamino)methyl]-2-oxo-1,2-dihydronicotinamide] |
| < 100 | < 100 | Cn1ccnc1-c1cc(C#N)ccc1-c1cc(NC(=O)c2cc(CNC3(C)CCC3)cn(C3CC3)c2=O)nc(C2CC2)c1 [Example 39, N-{4-[4-cyano-2-(1-methyl-2-imidazolyl)phenyl]-6-cyclopropyl-2-pyridyl}-1-cyclopropyl-5-[(1-methylcyclobutylamino)methyl]-2-oxo-1,2-dihydronicotinamide] |
| 100 to 1000 | 100 to 1000 | C[C@H]1CCCN(Cc2cc(C(=O)Nc3cccc(C4(c5nncn5C)CC(F)(F)C4)c3)c(=O)n(C3CC3)c2)C1 [Example 79, 1-cyclopropyl-N-[3-[3,3-difluoro-1-(4-methyl-1,2,4-triazol-3-yl)cyclobutyl]phenyl]-5-[[(3S)-3-methylpiperidin-1-yl]methyl]-2-oxopyridine-3-carboxamide] |
| < 100 | 100 to 1000 | COCC1(NCc2cc(C(=O)Nc3cc(-c4ccc(C#N)cc4-c4nncn4C(F)F)cc(C4CC4)n3)c(=O)n(C3CC3)c2)CCC1 [Example 12, N-(4-{4-cyano-2-[4-(difluoromethyl)-4H-1,2,4-triazol-3-yl]phenyl}-6-cyclopropyl-2-pyridyl)-1-cyclopropyl-5-{[1-(methoxymethyl)cyclobutylamino]methyl}-2-oxo-1,2-dihydronicotinamide] |
| < 100 | < 100 | Cn1cc(CNC[C@@H]2CCCO2)cc(C(=O)Nc2cc(-c3ccc(Cl)cc3C(=O)N3CC(F)(F)C3)cc(C3CC3)n2)c1=O [Example 107, N-[4-[4-chloro-2-(3,3-difluoroazetidine-1-carbonyl)phenyl]-6-cyclopropylpyridin-2-yl]-1-methyl-2-oxo-5-[[[(2S)-oxolan-2-yl]methylamino]methyl]pyridine-3-carboxamide] |
| < 100 | < 100 | O=C(Nc1cc(-c2ccc(OC(F)F)cc2C(=O)N2CC(F)(F)C2)cc(C2CC2)n1)c1cc(CNCC2CCCO2)cn(C2CC2)c1=O (stereo in doubt) [Example 84, N-(6-cyclopropyl-4-{2-[(3,3-difluoro-1-azetidinyl)carbonyl]-4-difluoromethoxyphenyl}-2-pyridyl)-5-[({[(R)-tetrahydro-2-furyl]methyl}amino)methyl]-1-cyclopropyl-2-oxo-1,2-dihydronicotinamide] |
| < 100 | < 100 | CC1CC(c2cccc(NC(=O)c3cc(CN4CCC[C@H](C)C4)cn(C4CC4)c3=O)c2)(c2nncn2C)C1 (mixture of isomers) [Example 76, 1-cyclopropyl-N-[3-[3-methyl-1-(4-methyl-1,2,4-triazol-3-yl)cyclobutyl]phenyl]-5-[[(3S)-3-methylpiperidin-1-yl]methyl]-2-oxopyridine-3-carboxamide] |
| < 100 | < 100 | [2H]C([2H])([2H])n1ccnc1-c1cc(C#N)ccc1-c1cc(NC(=O)c2cc(CNCCOC)cn(C3CC3)c2=O)nc(C2CC2)c1 [Example 45, N-[4-(4-cyano-2-{1-[(^2H3)methyl]-2-imidazolyl}phenyl)-6-cyclopropyl-2-pyridyl]-1-cyclopropyl-5-[(2-methoxyethylamino)methyl]-2-oxo-1,2-dihydronicotinamide] |
| < 100 | < 100 | N#Cc1ccc(-c2cc(NC(=O)c3cc(CNCCOC(F)(F)F)cn(C4CC4)c3=O)nc(C3CC3)c2)c(-c2nncn2C(F)F)c1 [Example 9, N-(4-{4-cyano-2-[4-(difluoromethyl)-4H-1,2,4-triazol-3-yl]phenyl}-6-cyclopropyl-2-pyridyl)-1-cyclopropyl-2-oxo-5-[(2-trifluoromethoxyethylamino)methyl]-1,2-dihydronicotinamide] |
| 100 to 1000 | 1000 to 5000 | C[C@@H]1CN(Cc2cc(C(=O)Nc3cc(-c4ccc(C#N)cc4-c4nccn4C)cc(C4CC4)n3)c(=O)n(C3CC3)c2)CCO1 (single isomer, unassigned) [Example 36] |
| 100 to 1000 | > 5000 | Cn1cnnc1-c1cc(F)ccc1-c1cc(NC(=O)c2cc(-c3cc[nH]n3)cn(C3CC3)c2=O)nc(C2CC2)c1 [Example 27, N-{6-Cyclopropyl-4-[4-fluoro-2-(4-methyl-4H-1,2,4-triazol-3-yl)phenyl]-2-pyridyl}-1-cyclopropyl-2-oxo-5-(3-pyrazolyl)-1,2-dihydronicotinamide] |

| SMILES | IC50 (Cbl-b) [nM] | EC50 (Jurkat cells) [nM] |
| --- | --- | --- |
| CC1CC(c2cccc(NC(=O)c3cc(CN4CCC[C@H](C)C4)cn(CC4CC4)c3=O)c2)(c2nncn2C)C1 (mixture of isomers) [Example 78, 1-(cyclopropylmethyl)-N-[3-[3-methyl-1-(4-methyl-1,2,4-triazol-3-yl)cyclobutyl]phenyl]-5-[[(3S)-3-methylpiperidin-1-yl]methyl]-2-oxopyridine-3-carboxamide] | < 100 | 100 to 1000 |
